From patent US10208077B1, “Aesculin lipoic acid ester with antioxidant activity and a method of preparing the same” (SHAANXI UNIVERSITY OF SCIENCE AND TECHNOLOGY, priority 2018, dated 2019)

Assay: DPPH radical scavenging activity assay
Type: biochemical
Conditions: for Scavenging activity (%): 0.2 mmol/L DPPH, 30 min, room temperature, dark, absorbance at 517 nm
Description: The Antioxidant Activity of the Aesculin Lipoic Acid Ester Measured by a DPPH Radical Scavenging Activity Assay
2,2-Diphenyl-1-picryl hydrazyl (DPPH) is an organic compound composed of a stable organic radical. In the DPPH molecule, due to the presence of multiple electron-withdrawing —NO2 and large π bonds of the benzene ring, nitrogen free radical is stabilized. Its methanol solution is purple and has a maximum absorption peak at 517 nm. After the addition of an antioxidant, DPPH captures an electron to be paired with the free electron, and the purple fades and turns into a yellow substance. The absorption at 517 nm disappears, and the degree of fading is quantitatively related to the number of electrons it captures. Based on this principle, a spectrophotometer is used to detect the change of the absorbance of the DPPH radical and the sample solution, and the ability of the sample to provide hydrogen atoms and scavenge free radicals can be measured.
Preparation of DPPH solution: measuring exact amount of 2,2-diphenyl-1-picryl hydrazyl (DPPH) and dissolving in methanol to prepare a 0.2 mmol/L DPPH solution, stored at 0° C. in dark.
Preparation of sample solutions: the aesculin lipoic acid ester was diluted with a concentration gradient of 1.82, 7.28, 24.2, 48.4, 72.6, 96.8, 242, 484, 726, 968 ppm with acetonitrile to prepare sample solutions to be tested. Control samples (vitamin C, aesculin, lipoic acid, a mixture of aesculin and lipoic acid) were diluted with methanol in the same manner in the same concentration gradient to obtain the corresponding four groups of control solutions.
Measuring the Scavenging Activity of the Sample Solutions:
2 mL of the sample solutions at each concentration gradient was taken, 2 mL 0.2 mmol/L DPPH solution was added, the mixture was mixed and reacted at room temperature in dark for 30 minutes, and methanol was then added to adjust final volume. The absorbance Ai was measured at 517 nm. 2 mL control solution and 2 mL methanol were mixed, and the absorbance Aj was measured. 2 mL DPPH solution and 2 mL methanol were mixed, and the absorbance A0 was measured. The scavenging activity of the sample solution and control solutions is calculated according to the following calculation formula. Scavenging activity (%)=100×[1−(Ai−Aj)/A0]

Row | Structure (SMILES) | Scavenging activity (%) (1.82 ppm) | Scavenging activity (%) (7.28 ppm) | Scavenging activity (%) (24.2 ppm) | Scavenging activity (%) (48.4 ppm) | Scavenging activity (%) (72.6 ppm) | Scavenging activity (%) (96.8 ppm) | Scavenging activity (%) (242 ppm) | Scavenging activity (%) (484 ppm) | Scavenging activity (%) (726 ppm) | Scavenging activity (%) (968 ppm) | free radical clearance rate (achieved at a lower concentration than aesculin, lipoic acid and their mixture)
1 | O=c1ccc2cc(O[C@@H]3O[C@H](CO)[C@@H](O)[C@H](O)[C@H]3O)c(O)cc2o1 [Aesculin] | 3.44 | 3.53 | 5.12 | 5.56 | 8.12 | 10.77 | 24.01 | 42.54 | 58.34 | 70.70 | 
2 | O=C1O[C@H]([C@@H](O)CO)C(O)=C1O [Vitamin C, vitamin C] | 23.86 | 72.45 | 96.70 | 96.99 | 97.58 | 97.77 | 97.77 | 98.06 | 98.06 | 98.06 | 
3 | O=C(O)CCCC[C@@H]1CCSS1 (racemic) [Lipoic acid] | 0.86 | 1.14 | 1.43 | 1.62 | 2.47 | 3.81 | 8.47 | 16.65 | 20.17 | 21.88 | 
4 | O=C(CCCC[C@@H]1CCSS1)OCC1OC(Oc2cc3ccc(=O)oc3cc2O)C(O)C(O)C1O (some centres unmarked) [Aesculin lipoic acid ester, aesculin lipoic acid ester] | 30.93 | 42.73 | 57.70 | 72.90 | 83.5 | 89.73 | 95.30 | 96.50 | 96.83 | 96.94 | more than 90%
